Test results from BindingDB's records for doi:10.1111/j.1476-5381.1996.tb15208.x (Smithkline Beecham Pharmaceuticals, 1996).
pKi: −log10 of the molar value.

Tests used:
D(3) dopamine receptor = D(3) dopamine receptor (Homo sapiens, UniProt P35462)
[1] = target: 5-hydroxytryptamine receptor 2A (Homo sapiens, UniProt P28223)
Histamine H1 receptor = Histamine H1 receptor (Cavia porcellus, UniProt P31389)
[2] = target: 5-hydroxytryptamine receptor 7 (Homo sapiens, UniProt P34969)
[3] = target: 5-hydroxytryptamine receptor 1E (Homo sapiens, UniProt P28566)
5-hydroxytryptamine receptor 1E, sequence (P28566 whole entry): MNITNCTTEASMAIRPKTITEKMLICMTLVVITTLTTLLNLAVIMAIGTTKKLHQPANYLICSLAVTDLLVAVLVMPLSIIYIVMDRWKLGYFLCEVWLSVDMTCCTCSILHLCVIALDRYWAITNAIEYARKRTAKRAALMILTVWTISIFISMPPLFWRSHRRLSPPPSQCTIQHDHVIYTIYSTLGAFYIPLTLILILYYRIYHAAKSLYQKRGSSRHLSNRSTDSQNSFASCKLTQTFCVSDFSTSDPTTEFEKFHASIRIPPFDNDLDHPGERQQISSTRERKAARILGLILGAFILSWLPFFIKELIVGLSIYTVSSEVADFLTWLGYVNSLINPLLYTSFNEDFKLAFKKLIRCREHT

D(4) dopamine receptor = target: T1, D(4) dopamine receptor (Homo sapiens, UniProt P21917)
T1 sequence (P21917 whole entry): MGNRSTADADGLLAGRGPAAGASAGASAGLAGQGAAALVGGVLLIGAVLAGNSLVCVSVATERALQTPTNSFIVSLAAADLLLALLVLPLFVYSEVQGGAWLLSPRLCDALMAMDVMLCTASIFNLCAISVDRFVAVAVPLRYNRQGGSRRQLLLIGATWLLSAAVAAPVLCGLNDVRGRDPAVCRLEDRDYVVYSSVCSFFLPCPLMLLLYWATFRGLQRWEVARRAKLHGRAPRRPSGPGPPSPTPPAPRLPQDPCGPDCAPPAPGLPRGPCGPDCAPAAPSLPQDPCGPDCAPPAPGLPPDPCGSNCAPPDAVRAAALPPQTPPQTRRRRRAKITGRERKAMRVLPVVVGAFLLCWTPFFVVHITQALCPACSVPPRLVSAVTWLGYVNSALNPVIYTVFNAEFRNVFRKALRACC

Adenosine receptor A1 = target: T2, Adenosine receptor A1 (Rattus norvegicus, UniProt P25099)
T2 sequence (P25099 whole entry): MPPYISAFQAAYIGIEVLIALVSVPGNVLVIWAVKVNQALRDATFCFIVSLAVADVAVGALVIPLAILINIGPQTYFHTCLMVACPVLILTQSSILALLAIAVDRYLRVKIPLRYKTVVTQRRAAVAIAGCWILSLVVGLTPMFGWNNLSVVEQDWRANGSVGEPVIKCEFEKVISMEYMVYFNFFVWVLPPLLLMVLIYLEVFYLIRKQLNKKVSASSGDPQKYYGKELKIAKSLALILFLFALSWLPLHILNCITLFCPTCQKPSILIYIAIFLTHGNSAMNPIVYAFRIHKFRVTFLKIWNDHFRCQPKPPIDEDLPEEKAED

D(2) dopamine receptor = D(2) dopamine receptor (Homo sapiens, UniProt P14416)
D(2) dopamine receptor, sequence (P14416 whole entry): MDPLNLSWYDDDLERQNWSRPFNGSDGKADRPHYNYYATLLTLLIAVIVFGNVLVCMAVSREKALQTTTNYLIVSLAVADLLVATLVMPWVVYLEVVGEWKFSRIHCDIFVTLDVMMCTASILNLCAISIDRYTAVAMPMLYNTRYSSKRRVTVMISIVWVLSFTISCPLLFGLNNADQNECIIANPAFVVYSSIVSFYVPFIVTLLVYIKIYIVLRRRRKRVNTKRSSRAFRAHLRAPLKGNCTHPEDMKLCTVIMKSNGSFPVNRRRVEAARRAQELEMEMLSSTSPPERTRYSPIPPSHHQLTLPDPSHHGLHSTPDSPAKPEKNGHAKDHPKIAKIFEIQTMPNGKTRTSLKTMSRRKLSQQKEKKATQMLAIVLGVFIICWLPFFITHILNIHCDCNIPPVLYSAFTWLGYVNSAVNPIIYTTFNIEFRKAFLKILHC

[4] = target: T3, Alpha-1A adrenergic receptor (Rattus norvegicus, UniProt P43140)
T3 sequence (P43140 whole entry): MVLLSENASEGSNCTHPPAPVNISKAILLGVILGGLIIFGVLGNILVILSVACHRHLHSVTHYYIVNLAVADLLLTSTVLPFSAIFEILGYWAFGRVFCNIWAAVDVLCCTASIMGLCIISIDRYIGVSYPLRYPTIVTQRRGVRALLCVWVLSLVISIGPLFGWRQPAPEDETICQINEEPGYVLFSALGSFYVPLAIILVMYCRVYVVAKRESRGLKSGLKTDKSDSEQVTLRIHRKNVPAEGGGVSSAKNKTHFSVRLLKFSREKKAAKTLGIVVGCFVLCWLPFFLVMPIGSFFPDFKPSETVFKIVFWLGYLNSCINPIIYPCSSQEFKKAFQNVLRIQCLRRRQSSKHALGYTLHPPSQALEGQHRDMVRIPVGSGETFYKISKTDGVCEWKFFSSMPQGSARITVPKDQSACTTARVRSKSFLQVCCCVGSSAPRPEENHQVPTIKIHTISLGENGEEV

[5] = target: Gamma-aminobutyric acid receptor subunit alpha-1 (Rattus norvegicus, UniProt P62813)
Gamma-aminobutyric acid receptor subunit alpha-1, sequence (P62813 whole entry): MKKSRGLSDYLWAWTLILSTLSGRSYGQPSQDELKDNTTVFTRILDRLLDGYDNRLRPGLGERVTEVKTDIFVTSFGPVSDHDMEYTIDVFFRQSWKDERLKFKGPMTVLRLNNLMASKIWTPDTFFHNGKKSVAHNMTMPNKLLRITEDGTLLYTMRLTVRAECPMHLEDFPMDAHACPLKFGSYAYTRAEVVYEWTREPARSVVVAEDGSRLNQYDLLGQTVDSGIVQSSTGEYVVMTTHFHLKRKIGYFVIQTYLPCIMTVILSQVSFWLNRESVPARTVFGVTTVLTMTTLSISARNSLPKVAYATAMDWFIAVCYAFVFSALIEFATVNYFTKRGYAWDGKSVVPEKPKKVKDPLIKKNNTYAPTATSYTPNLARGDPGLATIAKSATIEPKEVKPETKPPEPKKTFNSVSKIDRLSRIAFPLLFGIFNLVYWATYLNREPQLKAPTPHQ

[6] = target: 5-hydroxytryptamine receptor 1D (Cavia porcellus, UniProt Q60484)
5-hydroxytryptamine receptor 1D, sequence (Q60484 whole entry): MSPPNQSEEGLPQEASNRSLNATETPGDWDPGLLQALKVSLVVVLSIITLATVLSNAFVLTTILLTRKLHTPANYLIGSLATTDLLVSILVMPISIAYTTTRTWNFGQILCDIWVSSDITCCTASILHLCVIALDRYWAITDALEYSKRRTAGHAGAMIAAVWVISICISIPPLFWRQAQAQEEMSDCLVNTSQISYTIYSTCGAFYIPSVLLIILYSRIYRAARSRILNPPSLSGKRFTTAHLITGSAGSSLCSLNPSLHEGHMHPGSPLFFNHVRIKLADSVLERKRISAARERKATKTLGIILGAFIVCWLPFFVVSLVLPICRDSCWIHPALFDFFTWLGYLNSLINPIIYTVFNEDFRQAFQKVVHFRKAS

[7] = target: T4, 5-hydroxytryptamine receptor 1F (Homo sapiens, UniProt P30939)
T4 sequence (P30939 whole entry): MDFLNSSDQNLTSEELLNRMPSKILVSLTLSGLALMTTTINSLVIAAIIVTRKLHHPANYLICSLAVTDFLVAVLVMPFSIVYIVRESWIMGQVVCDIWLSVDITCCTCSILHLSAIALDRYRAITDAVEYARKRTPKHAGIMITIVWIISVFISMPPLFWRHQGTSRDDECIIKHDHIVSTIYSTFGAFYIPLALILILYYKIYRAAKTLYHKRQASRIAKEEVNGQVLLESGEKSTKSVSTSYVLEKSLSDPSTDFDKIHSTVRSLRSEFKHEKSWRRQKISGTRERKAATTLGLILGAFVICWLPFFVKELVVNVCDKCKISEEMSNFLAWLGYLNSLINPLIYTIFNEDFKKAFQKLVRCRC

[8] = target: 5-hydroxytryptamine receptor 2B (Rattus norvegicus, UniProt P30994)
5-hydroxytryptamine receptor 2B, sequence (P30994 whole entry): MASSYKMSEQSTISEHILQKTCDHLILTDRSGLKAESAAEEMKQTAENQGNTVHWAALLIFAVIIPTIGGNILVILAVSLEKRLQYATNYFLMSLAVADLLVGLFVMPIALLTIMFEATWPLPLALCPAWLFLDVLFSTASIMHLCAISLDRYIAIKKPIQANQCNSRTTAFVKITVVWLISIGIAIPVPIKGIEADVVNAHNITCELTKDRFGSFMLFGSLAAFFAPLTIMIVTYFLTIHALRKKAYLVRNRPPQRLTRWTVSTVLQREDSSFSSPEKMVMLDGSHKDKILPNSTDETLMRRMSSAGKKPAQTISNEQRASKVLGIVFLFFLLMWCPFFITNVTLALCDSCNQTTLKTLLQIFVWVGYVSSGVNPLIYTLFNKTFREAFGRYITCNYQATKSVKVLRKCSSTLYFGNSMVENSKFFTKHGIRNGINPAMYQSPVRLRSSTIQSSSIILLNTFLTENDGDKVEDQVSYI

[9] = target: T5, 5-hydroxytryptamine receptor 3A (Rattus norvegicus, UniProt P35563)
T5 sequence (P35563 whole entry): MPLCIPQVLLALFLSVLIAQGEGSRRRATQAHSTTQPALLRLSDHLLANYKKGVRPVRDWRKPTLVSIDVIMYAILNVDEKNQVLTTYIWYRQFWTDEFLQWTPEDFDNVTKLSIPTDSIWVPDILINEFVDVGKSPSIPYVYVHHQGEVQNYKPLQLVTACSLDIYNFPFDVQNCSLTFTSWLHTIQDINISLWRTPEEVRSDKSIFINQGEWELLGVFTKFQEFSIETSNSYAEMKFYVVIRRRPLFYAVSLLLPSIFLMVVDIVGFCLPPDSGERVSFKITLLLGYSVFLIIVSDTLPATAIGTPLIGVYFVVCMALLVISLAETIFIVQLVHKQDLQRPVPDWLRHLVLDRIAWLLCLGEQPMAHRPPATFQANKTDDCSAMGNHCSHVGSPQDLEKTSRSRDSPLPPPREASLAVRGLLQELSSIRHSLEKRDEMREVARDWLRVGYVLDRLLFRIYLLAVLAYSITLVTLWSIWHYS

5-hydroxytryptamine receptor 7, sequence (P34969 whole entry): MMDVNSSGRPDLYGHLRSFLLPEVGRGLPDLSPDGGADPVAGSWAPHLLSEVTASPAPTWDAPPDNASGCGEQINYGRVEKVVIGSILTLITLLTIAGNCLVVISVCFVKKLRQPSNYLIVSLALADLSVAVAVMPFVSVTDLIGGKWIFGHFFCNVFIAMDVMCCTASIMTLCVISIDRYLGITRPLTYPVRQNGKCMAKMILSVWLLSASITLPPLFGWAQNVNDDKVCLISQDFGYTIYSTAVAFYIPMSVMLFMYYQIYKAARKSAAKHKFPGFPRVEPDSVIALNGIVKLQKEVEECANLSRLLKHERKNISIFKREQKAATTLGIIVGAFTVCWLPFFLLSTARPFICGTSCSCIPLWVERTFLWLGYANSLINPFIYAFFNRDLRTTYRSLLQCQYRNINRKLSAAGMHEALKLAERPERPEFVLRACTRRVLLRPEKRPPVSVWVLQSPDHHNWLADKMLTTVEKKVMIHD
D(3) dopamine receptor, sequence (P35462 as listed by the source): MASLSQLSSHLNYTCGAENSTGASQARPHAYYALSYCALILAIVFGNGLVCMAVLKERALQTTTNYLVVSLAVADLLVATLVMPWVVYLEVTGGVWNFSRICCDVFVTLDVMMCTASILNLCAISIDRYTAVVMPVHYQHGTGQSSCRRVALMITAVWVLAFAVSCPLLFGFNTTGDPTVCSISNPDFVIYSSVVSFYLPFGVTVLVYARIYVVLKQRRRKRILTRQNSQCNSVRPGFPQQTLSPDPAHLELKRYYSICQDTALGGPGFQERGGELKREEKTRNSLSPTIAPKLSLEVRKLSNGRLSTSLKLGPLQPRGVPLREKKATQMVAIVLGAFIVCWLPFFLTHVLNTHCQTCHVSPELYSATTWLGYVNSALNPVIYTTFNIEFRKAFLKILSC
5-hydroxytryptamine receptor 2A, sequence (P28223 whole entry): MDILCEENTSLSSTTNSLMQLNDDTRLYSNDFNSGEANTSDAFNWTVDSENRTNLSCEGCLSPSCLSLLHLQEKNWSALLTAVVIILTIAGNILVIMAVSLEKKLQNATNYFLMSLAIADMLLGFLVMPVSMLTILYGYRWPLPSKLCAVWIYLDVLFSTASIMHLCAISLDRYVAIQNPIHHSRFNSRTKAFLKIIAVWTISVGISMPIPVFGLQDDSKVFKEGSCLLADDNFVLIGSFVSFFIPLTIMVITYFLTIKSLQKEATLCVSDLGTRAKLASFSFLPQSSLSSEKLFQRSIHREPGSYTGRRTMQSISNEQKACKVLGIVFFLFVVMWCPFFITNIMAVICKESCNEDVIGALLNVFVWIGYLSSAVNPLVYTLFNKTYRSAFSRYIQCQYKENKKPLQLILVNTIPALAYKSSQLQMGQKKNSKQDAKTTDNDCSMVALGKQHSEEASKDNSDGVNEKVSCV
Histamine H1 receptor, sequence (P31389 whole entry): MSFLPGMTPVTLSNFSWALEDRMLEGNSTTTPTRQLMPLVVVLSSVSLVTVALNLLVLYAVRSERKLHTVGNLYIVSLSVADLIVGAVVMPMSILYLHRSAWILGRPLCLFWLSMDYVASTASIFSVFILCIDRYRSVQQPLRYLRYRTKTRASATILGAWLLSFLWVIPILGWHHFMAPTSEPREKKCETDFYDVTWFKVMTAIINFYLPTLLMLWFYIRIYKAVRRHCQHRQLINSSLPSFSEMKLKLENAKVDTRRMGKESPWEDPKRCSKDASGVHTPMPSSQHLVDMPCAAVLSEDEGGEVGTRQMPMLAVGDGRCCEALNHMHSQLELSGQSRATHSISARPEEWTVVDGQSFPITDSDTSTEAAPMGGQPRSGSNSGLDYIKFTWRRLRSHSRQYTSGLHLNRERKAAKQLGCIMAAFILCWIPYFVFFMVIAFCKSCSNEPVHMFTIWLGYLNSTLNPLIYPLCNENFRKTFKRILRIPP

## Cn1ccc2cc3c(cc21)CCN3C(=O)Nc1cccnc1
D(3) dopamine receptor
  pKi: < 5.00
[1]
  pKi: 5.78
Histamine H1 receptor
  pKi: < 5.00
[2]
  pKi: 6.00
[3]
  pKi: 5.30
D(4) dopamine receptor
  pKi: < 5.00
Adenosine receptor A1
  pKi: < 5.00
D(2) dopamine receptor
  pKi: < 5.00
[4]
  pKi: < 5.00
[5]
  pKi: < 5.00
[6]
  pKi: 6.00
[7]
  pKi: 5.30
[8]
  pKi: 8.89
[9]
  pKi: < 5.00
